Some test systems named below: OVCAR-5 ovarian; NCI-H226 lung; HCC-2998 colon; MALME-3M melanoma; NCI-H522 lung; HOP-62 NSCLC; OVCAR-4 ovarian; RPMI-8226 leukemia; EKVX NSCLC; HOP-92 NSCLC.
Holding throughout (assay): DTP human tumour cell line panel, 48 h

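Grown in 96-well plates, cells were treated for 48 hours with each compound at five concentrations. Insufficient inhibition: endpoint recorded as highest concentration tested. GI50: concentration for 50% inhibition of growth. The concentration for full growth arrest is given as TGI.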 Bounds are passed on as bounds.

On to `CCN(CC)CCCN1C(=O)c2c(c(C)c3c(oc4cc(O)ccc43)c2C)C1=O`, for which the GI50 (commonly the concentration at which growth is held to half of that of the control) was 1.72 µM in the assay on OVCAR-5 ovarian; 4.47 µM with NCI-H226 lung; 1.78 µM in the assay with HCC-2998 colon; 1.83 µM in the assay on MALME-3M melanoma; 1.84 µM in the assay with NCI-H522 lung; 1.73 µM in the assay with HOP-62 NSCLC. In addition, the GI50 in the assay on OVCAR-4 ovarian is 1.84 µM; with RPMI-8226 leukemia, 1.93 µM; in the assay on EKVX NSCLC, 1.51 µM; in the assay with HOP-92 NSCLC, 1.48 µM. For the same molecule, the concentration for total growth inhibition (TGI) (in general, the concentration at which net growth stops) with OVCAR-5 ovarian amounted to 3.22 µM; in the assay with NCI-H226 lung, 27.4 µM; in the assay on HCC-2998 colon, 3.27 µM; with MALME-3M melanoma, 3.51 µM; in the assay with NCI-H522 lung, 3.66 µM; in the assay on HOP-62 NSCLC, 3.29 µM. For the same molecule, the concentration for total growth inhibition (TGI) turned out to be 3.55 µM in the assay on OVCAR-4 ovarian, 4.17 µM in the assay with RPMI-8226 leukemia, 3.16 µM with EKVX NSCLC and 3.02 µM in the assay with HOP-92 NSCLC.
In the case of `Cn1c(Cc2ccccc2)nc2cc3ccccc3cc21`, the GI50 in the assay on OVCAR-5 ovarian is 42.5 µM; with NCI-H226 lung it was 22.7 µM; in the assay with HCC-2998 colon, 22.8 µM; with MALME-3M melanoma, 20.7 µM; with NCI-H522 lung it was 34.5 µM; in the assay on HOP-62 NSCLC, 38.3 µM. Also, the GI50 was 70.4 µM in the assay on OVCAR-4 ovarian, 13.1 µM in the assay with RPMI-8226 leukemia, 22.2 µM in the assay with EKVX NSCLC and 10.7 µM in the assay with HOP-92 NSCLC. Further, the TGI is above 100 µM with OVCAR-5 ovarian; 56.8 µM in the assay on NCI-H226 lung; 49.9 µM in the assay on HCC-2998 colon; 50.6 µM in the assay with MALME-3M melanoma; above 100 µM with NCI-H522 lung; above 100 µM with HOP-62 NSCLC. The concentration for total growth inhibition (TGI) in the assay on OVCAR-4 ovarian is above 100 µM; with RPMI-8226 leukemia, 34.3 µM; in the assay on EKVX NSCLC it was 52.5 µM; with HOP-92 NSCLC, 34.6 µM.
With `COc1ccc2c(c1)C(=O)c1c-2c(N2CCN(C(=O)CN(C)C)CC2)nc2ccccc12`, the GI50 in the assay on OVCAR-5 ovarian is 28.8 µM; in the assay on NCI-H226 lung it was 35.7 µM; in the assay with HCC-2998 colon, 15.2 µM; with MALME-3M melanoma, 23 µM; in the assay with NCI-H522 lung it was 13.7 µM; with HOP-62 NSCLC, 13.6 µM. Also, the GI50 in the assay with OVCAR-4 ovarian is 13 µM; with RPMI-8226 leukemia, 10.7 µM; with EKVX NSCLC it was 17.7 µM; in the assay with HOP-92 NSCLC, 5.69 µM. Also, the TGI with OVCAR-5 ovarian is 67.3 µM; in the assay on NCI-H226 lung it was above 100 µM; with HCC-2998 colon it was 40.5 µM; in the assay with MALME-3M melanoma, 58.1 µM; with NCI-H522 lung, 30.6 µM; in the assay on HOP-62 NSCLC, 29.2 µM. In addition, the TGI in the assay with OVCAR-4 ovarian came out at 29.5 µM; in the assay on RPMI-8226 leukemia it was 28.6 µM; in the assay on EKVX NSCLC, 41.5 µM; in the assay on HOP-92 NSCLC, 24.2 µM.
For the molecule `Nc1c(C(=O)Nc2cccc3ccccc23)sc2nc3c(cc12)CCCCC3`, the GI50 in the assay with OVCAR-5 ovarian is 2.48 µM; in the assay with NCI-H226 lung, 7.58 µM; in the assay with HCC-2998 colon, 2.41 µM; in the assay on MALME-3M melanoma, 31.9 µM; with NCI-H522 lung it was 0.724 µM; with HOP-62 NSCLC, 2.63 µM. Further, the GI50 was 1.79 µM in the assay with OVCAR-4 ovarian, 1.16 µM in the assay on RPMI-8226 leukemia, 1.35 µM with EKVX NSCLC and 0.375 µM with HOP-92 NSCLC. Also, the concentration for total growth inhibition (TGI) in the assay on OVCAR-5 ovarian is above 50 µM; in the assay with NCI-H226 lung, above 50 µM; in the assay on HCC-2998 colon, above 50 µM; with MALME-3M melanoma it was above 50 µM; with NCI-H522 lung, 4.7 µM; with HOP-62 NSCLC, above 50 µM. For the same molecule, the concentration for total growth inhibition (TGI) with OVCAR-4 ovarian, with RPMI-8226 leukemia, in the assay with EKVX NSCLC and with HOP-92 NSCLC was above 50 µM in each case.
Regarding `Cc1c(N(C(=O)c2cc(-c3cc(Cl)ccc3C(=O)N3Cc4ccccc4C[C@H]3CN3CCOCC3)n(C)c2C)c2ccc(O)cc2)cc(C#N)n1C`, the GI50 in the assay on OVCAR-5 ovarian was 44.9 µM; in the assay on NCI-H226 lung it was 14.1 µM; in the assay with HCC-2998 colon it was 15.1 µM; with MALME-3M melanoma it was 20.8 µM; in the assay with NCI-H522 lung, 20.4 µM; in the assay on HOP-62 NSCLC, 25.8 µM. The GI50 was 11.4 µM in the assay with OVCAR-4 ovarian, 7.32 µM with RPMI-8226 leukemia, 48.4 µM with EKVX NSCLC and 5.24 µM in the assay with HOP-92 NSCLC. Besides, the concentration for total growth inhibition (TGI) with OVCAR-5 ovarian was above 100 µM; in the assay on NCI-H226 lung, 44.4 µM; in the assay on HCC-2998 colon, 44.9 µM; in the assay with MALME-3M melanoma, 64.3 µM; in the assay on NCI-H522 lung it was above 100 µM; in the assay with HOP-62 NSCLC, above 100 µM. Also, the total growth inhibition concentration (TGI) was above 100 µM in the assay on OVCAR-4 ovarian, above 100 µM with RPMI-8226 leukemia, above 100 µM with EKVX NSCLC and 22.6 µM in the assay on HOP-92 NSCLC.
Take `C=C1C(=O)O[C@H]2[C@H]1CC/C(COC(=O)NCCc1c[nH]c3ccccc13)=C\CC[C@@]1(C)O[C@@H]21`: the GI50 with OVCAR-5 ovarian is 2.3 µM; with NCI-H226 lung it was 1.8 µM; in the assay on HCC-2998 colon, 1.67 µM; in the assay with MALME-3M melanoma it was 1.94 µM; in the assay with NCI-H522 lung, 1.26 µM; with HOP-62 NSCLC it was 5.25 µM. Moreover, the GI50 was 2.96 µM in the assay on OVCAR-4 ovarian, 0.826 µM in the assay with RPMI-8226 leukemia, 1.51 µM with EKVX NSCLC and 1.27 µM in the assay on HOP-92 NSCLC. In addition, the concentration for total growth inhibition (TGI) was found to be 5.75 µM in the assay with OVCAR-5 ovarian; 3.39 µM in the assay with NCI-H226 lung; 3.18 µM with HCC-2998 colon; 3.82 µM in the assay with MALME-3M melanoma; 2.84 µM in the assay on NCI-H522 lung; 19.8 µM in the assay with HOP-62 NSCLC. The TGI with OVCAR-4 ovarian amounted to 13.1 µM; in the assay with RPMI-8226 leukemia, 4.26 µM; in the assay with EKVX NSCLC, 3.57 µM; in the assay on HOP-92 NSCLC it was 3.07 µM.
`O=C1CN2CCC1C/C2=C\c1ccnc2c(Cl)cccc12` (stereo not given): the GI50 with OVCAR-5 ovarian was above 100 µM; with NCI-H226 lung, 90.5 µM; in the assay on HCC-2998 colon it was above 100 µM; in the assay on MALME-3M melanoma, 91.9 µM; in the assay with NCI-H522 lung, 53.5 µM; in the assay on HOP-62 NSCLC it was above 100 µM. Besides, the GI50 was 42.5 µM with OVCAR-4 ovarian, 29.5 µM in the assay with RPMI-8226 leukemia, 33 µM with EKVX NSCLC and 37 µM in the assay with HOP-92 NSCLC. In addition, the total growth inhibition concentration (TGI) with OVCAR-5 ovarian, with NCI-H226 lung, with HCC-2998 colon, with MALME-3M melanoma, in the assay with NCI-H522 lung and in the assay on HOP-62 NSCLC was above 100 µM in each case. In addition, the TGI in the assay with OVCAR-4 ovarian, in the assay with RPMI-8226 leukemia, in the assay on EKVX NSCLC and in the assay on HOP-92 NSCLC was above 100 µM throughout.
On to `COc1ccc(C(=O)O)c2c(=O)c3ccccc3[nH]c12`, for which the TGI in the assay with OVCAR-5 ovarian was above 100 µM; in the assay with NCI-H226 lung, above 100 µM; in the assay on HCC-2998 colon, above 100 µM; in the assay on MALME-3M melanoma it was above 100 µM; with NCI-H522 lung, above 100 µM; in the assay on HOP-62 NSCLC it was above 31.6 µM. The total growth inhibition concentration (TGI) in the assay with OVCAR-4 ovarian, in the assay with RPMI-8226 leukemia, in the assay with EKVX NSCLC and in the assay on HOP-92 NSCLC was above 100 µM throughout.

(Values after PubChem BioAssay (NCI).)
